Where no end group is shown, it is not given here. The star is where a group is joined. Biotin = O=C1N[C@H]2[C@H](CS[C@H]2CCCCC(=O)*)N1

Assay [1] deals with heterogeneously flooded region of the isolated, perfused adult rat lung. Briefly: Ventilation injury score in the isolated, perfused adult rat lung (Method 2). The following applies: for Injury score: flooding solution normal saline with 5% albumin, solutes at about the concentrations present in 1% SURVANTA solution, n=1 or 2/group (FIG. 2A). The text has this: Method 2. Ventilation ‘injury score’ in the adult rat lung. In the isolated, perfused adult rat lung, a surface alveolus is micropunctured and a non-fluorescent test solution is instilled. In experimental regions, a sufficiently large volume of liquid is instilled to generate a pattern of heterogeneous alveolar flooding; in control regions, a sufficiently small volume of liquid is instilled that the liquid spontaneously clears from the region, leaving behind a micropunctured-but-aerated region. Fluorescent dye, at a low concentration verified not to alter surface tension, is included in the perfusate. The region is imaged by confocal microscopy over a five minute baseline period at a constant transpulmonary pressure of 5 cm H2O. Five ventilation cycles are supplied to the lung, at 0.33 Hz with a positive end-expiratory pressure of 15 cm H2O and a tidal volume of 6 ml/kg body weight. The lung is then returned to a constant transpulmonary pressure of 5 cm H2O and imaged for 10 additional minutes. Alveolar liquid fluorescence at all time points is normalized by capillary fluorescence.
At baseline, alveolar liquid fluorescence (in flooded alveoli of experimental regions or in the liquid lining layer of control, aerated regions) is low and constant in all regions. Following ventilation, alveolar liquid fluorescence remains unchanged in aerated regions but continually increases with time in heterogeneously flooded regions. […] The increase above baseline in normalized alveolar liquid fluorescence at the last time point of the experiment is used as an injury score. The injury score, which indicates the rate of increase of normalized fluorescence following ventilation, correlates with surface tension of the test solution.
2. degree of ventilation induced injury in a region of the isolated, perfused adult rat lung in which surface alveoli have been flooded, in a heterogeneous fashion, with a test solution;

Assay [2] has as its system surface alveoli of the isolated adult rat lung. Briefly: Surface tension determination in alveoli of the isolated adult rat lung (Method 1). The procedure:
Method 1. Surface tension determination in the adult rat lung. […] In flooded alveoli, the air-liquid interface forms a meniscus, at which surface tension is determined as follows. Alveolar air pressure is determined with a transducer at the trachea of the constantly-inflated lung. Alveolar liquid phase pressure is determined by servo-nulling pressure measurement. Meniscus radius of curvature is determined by confocal microscopy. Surface tension is calculated according to the Lapalce relation.
1. direct surface tension determination in surface alveoli of the isolated adult rat lung, which contains native lung surfactant, following alveolar instillation of a test solution;

The mark [3] stands for this setting: 10 μM NaOH alone, without dextran, in the absence or presence of SURVANTA

Turning to `CCCCCCCCCCCCCCCC(=O)OC[C@H](COP(=O)([O-])OCC[N+](C)(C)C)OC(=O)CCCCCCCCCCCCCCC` [DPPC, dipalmitoylphosphatidylcholine, reference compound], the Injury score entry in assay [1] is “Only SP-C and sSP-C lower injury score”.

For `[Na+].[OH-]` [NaOH], the “Effect on surface tension” value in assay [2] (setting [3]) was “no effect”. In assay [1] (setting [3]), the “Effect on lung injury” value is “no effect”.

Take fibrinogen: the “Facilitation of the surface activity of 1 vol % SURVANTA” value in assay [2] (5 w/v % solute, adult rat lung, dextran negative charge imparted by 10 μM NaOH (FIGS. 1A and B)) is “facilitate”.

“sSP-Css-ion lock-B: a variant of sSP-Css-ion lock with a biotinylated N-terminal (Biotin-GIPSSPVHLKRLLIVVVVVELIVKVIVGALLMGL)”: in assay [1], the Injury score entry is “lower injury score”.

B1: SP-B: surfactant protein B isolated from pulmonary alveolar proteinosis patients (protein, UniProt P07988 201-279, looked up)
Pulmonary …: FPIPLPYCWLCRALIKRIQAMIPKGALAVAVAQVCRVVPLVAGGICQCLAERYSVILLDTLLGRMLPQLVCRLVLRCSM
modifications: Pulmonary surfactant-associated protein B
notes: surfactant protein B isolated from pulmonary alveolar proteinosis patients
In the case of B1, the Injury score entry in assay [1] was “Only SP-C and sSP-C lower injury score”.

(Values after patent publication US10391151B2, “Dilute surfactant or isolated surfactant protein solution for the reduction of surface tension in the lung” (The Trustees of the Stevens Institute of Technology, priority 2015, dated 2019).)
